Data from the CheMixHub viscosity set.
± gives the uncertainty stated by the source.

Test: xn = mol fraction of the nth substance listed

CC(CC(C)(C)C)CP(=O)(O)CC(C)CC(C)(C)C (stereo not given) + CCCCCC
viscosity (298.15 K, 101 kPa, x1 = 0.0033): 0.305 ± 0.004 mPa·s
viscosity (298.15 K, 101 kPa, x1 = 0.0159): 0.36 ± 0.005 mPa·s
viscosity (298.15 K, 101 kPa, x1 = 0.0175): 0.368 ± 0.005 mPa·s
viscosity (298.15 K, 101 kPa, x2 = 0.0987): 89.32 ± 1.3 mPa·s
viscosity (298.15 K, 101 kPa, x2 = 0.1765): 69.68 ± 0.89 mPa·s
viscosity (298.15 K, 101 kPa, x2 = 0.2746): 47.91 ± 0.58 mPa·s
viscosity (298.15 K, 101 kPa, x2 = 0.4476): 23.62 ± 0.29 mPa·s
viscosity (298.15 K, 101 kPa, x2 = 0.642): 9.432 ± 0.12 mPa·s
viscosity (298.15 K, 101 kPa, x2 = 0.7262): 5.982 ± 0.073 mPa·s
viscosity (298.15 K, 101 kPa, x2 = 0.73): 5.931 ± 0.073 mPa·s
viscosity (298.15 K, 101 kPa, x2 = 0.796): 3.39 ± 0.042 mPa·s
viscosity (298.15 K, 101 kPa, x2 = 0.8384): 2.461 ± 0.031 mPa·s
viscosity (298.15 K, 101 kPa, x2 = 0.8555): 2.122 ± 0.026 mPa·s
viscosity (298.15 K, 101 kPa, x2 = 0.9097): 1.221 ± 0.015 mPa·s
viscosity (298.15 K, 101 kPa, x2 = 0.9111): 1.203 ± 0.015 mPa·s
viscosity (298.15 K, 101 kPa, x2 = 0.9623): 0.504 ± 0.007 mPa·s

CCCCCCCCBr + ClC(Cl)(Cl)Cl
viscosity (293.15 K, 101 kPa, x1 = 0.0483): 0.9339 ± 0.038 mPa·s
viscosity (293.15 K, 101 kPa, x1 = 0.0969): 0.9701 ± 0.04 mPa·s
viscosity (293.15 K, 101 kPa, x1 = 0.1945): 1.037 ± 0.042 mPa·s
viscosity (293.15 K, 101 kPa, x1 = 0.3916): 1.173 ± 0.048 mPa·s
viscosity (293.15 K, 101 kPa, x1 = 0.5916): 1.295 ± 0.053 mPa·s
viscosity (293.15 K, 101 kPa, x1 = 0.7943): 1.404 ± 0.057 mPa·s
viscosity (303.55 K, 101 kPa, x1 = 0.0608): 0.87 ± 0.036 mPa·s
viscosity (303.55 K, 101 kPa, x1 = 0.0978): 0.893 ± 0.036 mPa·s
viscosity (303.55 K, 101 kPa, x1 = 0.1964): 0.955 ± 0.039 mPa·s
viscosity (303.55 K, 101 kPa, x1 = 0.3775): 1.08 ± 0.044 mPa·s
viscosity (303.55 K, 101 kPa, x1 = 0.5801): 1.18 ± 0.048 mPa·s
viscosity (303.55 K, 101 kPa, x1 = 0.8407): 1.307 ± 0.053 mPa·s
viscosity (313.65 K, 101 kPa, x1 = 0.0482): 0.7513 ± 0.031 mPa·s
viscosity (313.65 K, 101 kPa, x1 = 0.0973): 0.7763 ± 0.032 mPa·s
viscosity (313.65 K, 101 kPa, x1 = 0.1952): 0.8276 ± 0.034 mPa·s
viscosity (313.65 K, 101 kPa, x1 = 0.3945): 0.9359 ± 0.038 mPa·s
viscosity (313.65 K, 101 kPa, x1 = 0.5771): 1.022 ± 0.042 mPa·s
viscosity (313.65 K, 101 kPa, x1 = 0.7616): 1.097 ± 0.045 mPa·s

CNCCO + CS(C)=O
viscosity (293.15 K, 101.3 kPa, x1 = 0.1038): 2.286 ± 0.06 mPa·s
viscosity (293.15 K, 101.3 kPa, x1 = 0.2066): 2.433 ± 0.064 mPa·s
viscosity (293.15 K, 101.3 kPa, x1 = 0.3084): 2.768 ± 0.073 mPa·s
viscosity (293.15 K, 101.3 kPa, x1 = 0.4095): 3.144 ± 0.083 mPa·s
viscosity (293.15 K, 101.3 kPa, x1 = 0.5101): 3.804 ± 0.1 mPa·s
viscosity (293.15 K, 101.3 kPa, x1 = 0.6095): 4.512 ± 0.12 mPa·s
viscosity (293.15 K, 101.3 kPa, x1 = 0.7084): 5.755 ± 0.15 mPa·s
viscosity (293.15 K, 101.3 kPa, x1 = 0.8064): 7.432 ± 0.2 mPa·s
viscosity (293.15 K, 101.3 kPa, x1 = 0.9035): 9.786 ± 0.26 mPa·s
viscosity (298.15 K, 101.3 kPa, x1 = 0.1038): 2.054 ± 0.054 mPa·s
viscosity (298.15 K, 101.3 kPa, x1 = 0.2066): 2.173 ± 0.057 mPa·s
viscosity (298.15 K, 101.3 kPa, x1 = 0.3084): 2.45 ± 0.064 mPa·s
viscosity (298.15 K, 101.3 kPa, x1 = 0.4095): 2.754 ± 0.072 mPa·s
viscosity (298.15 K, 101.3 kPa, x1 = 0.5101): 3.293 ± 0.087 mPa·s
viscosity (298.15 K, 101.3 kPa, x1 = 0.6095): 3.852 ± 0.1 mPa·s
viscosity (298.15 K, 101.3 kPa, x1 = 0.7084): 4.836 ± 0.13 mPa·s
viscosity (298.15 K, 101.3 kPa, x1 = 0.8064): 6.143 ± 0.16 mPa·s
viscosity (298.15 K, 101.3 kPa, x1 = 0.9035): 7.947 ± 0.21 mPa·s
viscosity (303.15 K, 101.3 kPa, x1 = 0.1038): 1.858 ± 0.049 mPa·s
viscosity (303.15 K, 101.3 kPa, x1 = 0.2066): 1.956 ± 0.051 mPa·s
viscosity (303.15 K, 101.3 kPa, x1 = 0.3084): 2.186 ± 0.058 mPa·s
viscosity (303.15 K, 101.3 kPa, x1 = 0.4095): 2.435 ± 0.064 mPa·s
viscosity (303.15 K, 101.3 kPa, x1 = 0.5101): 2.877 ± 0.076 mPa·s
viscosity (303.15 K, 101.3 kPa, x1 = 0.6095): 3.327 ± 0.088 mPa·s
viscosity (303.15 K, 101.3 kPa, x1 = 0.7084): 4.116 ± 0.11 mPa·s
viscosity (303.15 K, 101.3 kPa, x1 = 0.8064): 5.151 ± 0.14 mPa·s
viscosity (303.15 K, 101.3 kPa, x1 = 0.9035): 6.549 ± 0.17 mPa·s
viscosity (308.15 K, 101.3 kPa, x1 = 0.1038): 1.691 ± 0.044 mPa·s
viscosity (308.15 K, 101.3 kPa, x1 = 0.2066): 1.771 ± 0.047 mPa·s
viscosity (308.15 K, 101.3 kPa, x1 = 0.3084): 1.964 ± 0.052 mPa·s
viscosity (308.15 K, 101.3 kPa, x1 = 0.4095): 2.168 ± 0.057 mPa·s
viscosity (308.15 K, 101.3 kPa, x1 = 0.5101): 2.537 ± 0.067 mPa·s
viscosity (308.15 K, 101.3 kPa, x1 = 0.6095): 2.905 ± 0.076 mPa·s
viscosity (308.15 K, 101.3 kPa, x1 = 0.7084): 3.542 ± 0.093 mPa·s
viscosity (308.15 K, 101.3 kPa, x1 = 0.8064): 4.368 ± 0.12 mPa·s
viscosity (308.15 K, 101.3 kPa, x1 = 0.9035): 5.476 ± 0.14 mPa·s
viscosity (313.15 K, 101.3 kPa, x1 = 0.1038): 1.547 ± 0.041 mPa·s
viscosity (313.15 K, 101.3 kPa, x1 = 0.2066): 1.613 ± 0.042 mPa·s
viscosity (313.15 K, 101.3 kPa, x1 = 0.3084): 1.776 ± 0.047 mPa·s
viscosity (313.15 K, 101.3 kPa, x1 = 0.4095): 1.946 ± 0.051 mPa·s
viscosity (313.15 K, 101.3 kPa, x1 = 0.5101): 2.254 ± 0.059 mPa·s
viscosity (313.15 K, 101.3 kPa, x1 = 0.6095): 2.555 ± 0.067 mPa·s
viscosity (313.15 K, 101.3 kPa, x1 = 0.7084): 3.077 ± 0.081 mPa·s
viscosity (313.15 K, 101.3 kPa, x1 = 0.8064): 3.745 ± 0.099 mPa·s
viscosity (313.15 K, 101.3 kPa, x1 = 0.9035): 4.627 ± 0.12 mPa·s
viscosity (318.15 K, 101.3 kPa, x1 = 0.1038): 1.419 ± 0.037 mPa·s
viscosity (318.15 K, 101.3 kPa, x1 = 0.2066): 1.481 ± 0.039 mPa·s
viscosity (318.15 K, 101.3 kPa, x1 = 0.3084): 1.615 ± 0.042 mPa·s
viscosity (318.15 K, 101.3 kPa, x1 = 0.4095): 1.755 ± 0.046 mPa·s
viscosity (318.15 K, 101.3 kPa, x1 = 0.5101): 2.016 ± 0.053 mPa·s
viscosity (318.15 K, 101.3 kPa, x1 = 0.6095): 2.264 ± 0.06 mPa·s
viscosity (318.15 K, 101.3 kPa, x1 = 0.7084): 2.697 ± 0.071 mPa·s
viscosity (318.15 K, 101.3 kPa, x1 = 0.8064): 3.241 ± 0.085 mPa·s
viscosity (318.15 K, 101.3 kPa, x1 = 0.9035): 3.954 ± 0.1 mPa·s
viscosity (323.15 K, 101.3 kPa, x1 = 0.1038): 1.309 ± 0.034 mPa·s
viscosity (323.15 K, 101.3 kPa, x1 = 0.2066): 1.361 ± 0.036 mPa·s
viscosity (323.15 K, 101.3 kPa, x1 = 0.3084): 1.469 ± 0.039 mPa·s
viscosity (323.15 K, 101.3 kPa, x1 = 0.4095): 1.594 ± 0.042 mPa·s
viscosity (323.15 K, 101.3 kPa, x1 = 0.5101): 1.815 ± 0.048 mPa·s
viscosity (323.15 K, 101.3 kPa, x1 = 0.6095): 2.044 ± 0.054 mPa·s
viscosity (323.15 K, 101.3 kPa, x1 = 0.7084): 2.383 ± 0.063 mPa·s
viscosity (323.15 K, 101.3 kPa, x1 = 0.8064): 2.83 ± 0.075 mPa·s
viscosity (323.15 K, 101.3 kPa, x1 = 0.9035): 3.41 ± 0.09 mPa·s

CCOCCO + C1COCO1
viscosity (298.15 K, 101 kPa, x2 = 0.1191): 1.605 ± 0.012 mPa·s
viscosity (298.15 K, 101 kPa, x2 = 0.2332): 1.379 ± 0.011 mPa·s
viscosity (298.15 K, 101 kPa, x2 = 0.3427): 1.187 ± 0.0094 mPa·s
viscosity (298.15 K, 101 kPa, x2 = 0.4478): 1.03 ± 0.0083 mPa·s
viscosity (298.15 K, 101 kPa, x2 = 0.5488): 0.9124 ± 0.0074 mPa·s
viscosity (298.15 K, 101 kPa, x2 = 0.646): 0.8144 ± 0.0068 mPa·s
viscosity (298.15 K, 101 kPa, x2 = 0.7395): 0.7365 ± 0.0062 mPa·s
viscosity (298.15 K, 101 kPa, x2 = 0.8295): 0.6706 ± 0.0057 mPa·s
viscosity (298.15 K, 101 kPa, x2 = 0.9163): 0.6129 ± 0.0053 mPa·s

CCOCCO + CO
viscosity (298.15 K, 101 kPa, x1 = 0.038): 0.6216 ± 0.0055 mPa·s
viscosity (298.15 K, 101 kPa, x1 = 0.0816): 0.7062 ± 0.0066 mPa·s
viscosity (298.15 K, 101 kPa, x1 = 0.1322): 0.7916 ± 0.0079 mPa·s
viscosity (298.15 K, 101 kPa, x1 = 0.1916): 0.8844 ± 0.0096 mPa·s
viscosity (298.15 K, 101 kPa, x1 = 0.2623): 0.9885 ± 0.012 mPa·s
viscosity (298.15 K, 101 kPa, x1 = 0.3478): 1.114 ± 0.015 mPa·s
viscosity (298.15 K, 101 kPa, x1 = 0.4534): 1.255 ± 0.019 mPa·s
viscosity (298.15 K, 101 kPa, x1 = 0.5871): 1.422 ± 0.025 mPa·s
viscosity (298.15 K, 101 kPa, x1 = 0.7619): 1.625 ± 0.034 mPa·s
